Reference: patent publication US9440969B2, “Compounds and methods for kinase modulation, and indications therefor” (PLEXXIKON INC., priority 2009, dated 2016)

Key:
CYP1A2 = biological target: T1, CYP1A2 (Homo sapiens, UniProt P05177); assay: CYP1A2 inhibition (fluorescent substrate CEC); format: in vitro ADME; conditions: read-out: Cyp IC50 (μM) 1A2
T1 sequence (P05177 1-516): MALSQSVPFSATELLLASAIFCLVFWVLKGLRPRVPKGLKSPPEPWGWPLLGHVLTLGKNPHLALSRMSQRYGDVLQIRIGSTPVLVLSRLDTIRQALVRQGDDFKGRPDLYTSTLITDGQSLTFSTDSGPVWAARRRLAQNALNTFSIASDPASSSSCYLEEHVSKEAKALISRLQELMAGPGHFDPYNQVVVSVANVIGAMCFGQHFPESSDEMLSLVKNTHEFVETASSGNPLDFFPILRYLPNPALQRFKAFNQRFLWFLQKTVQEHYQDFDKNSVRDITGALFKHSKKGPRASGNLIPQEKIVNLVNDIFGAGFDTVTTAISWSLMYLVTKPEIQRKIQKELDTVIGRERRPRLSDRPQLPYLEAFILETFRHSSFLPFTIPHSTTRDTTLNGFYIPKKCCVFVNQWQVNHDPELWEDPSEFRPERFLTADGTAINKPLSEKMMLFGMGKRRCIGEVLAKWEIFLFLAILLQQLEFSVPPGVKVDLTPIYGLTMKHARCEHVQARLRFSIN
Experimental: (§1) CYP (Cytochrome P450) enzymes are the major drug metabolizing enzymes present in the liver. The inhibition of CYP enzyme activity (IC50) for each of CYP1A2, CYP2C19, CYP2C9, CYP2D6, CYP3A4(BFC) and CYP3A4(BQ) is determined for compounds, where inhibition of metabolism of a known substrate leads to a decrease in the fluorescence of the metabolized product. The fluorescence of the product is monitored as a function of compound concentration. Compounds are dissolved in dimethyl sulfoxide to a concentration of 100 mM. These are diluted […], into 82 μL of acetonitrile. An 11 μL aliquot of this solution is then added to 204 μL of cofactor mix (1.3% NADPH Regeneration system Solution A, 1.04% NADPH Regeneration system Solution B from BD Biosciences, 5% acetonitrile and 0.05% dimethyl sulfoxide). These are then serially diluted 1:1 (160 μL to 160 μL co-factor mix) for a total of 10 points. A 10 μL aliquot of this final mixture is dispensed into 384 well assay plates and incubated for 10 minutes at 37° C. Enzyme and substrate mix (10 μL; 0.5 pmol CYP1A2/5 μM CEC; 1.0 pmol CYP2C9/75 μM MFC; 0.5 pmol CYP2C19/25 μM CEC; 1.5 pmol CYP2D6/1.5 μM AMMC; 1.0 pmol CYP3A4/50 μM BFC; or 1.0 pmol CYP3A4/40 μM BQ) is added to these assay plates. Assay plates are incubated at 37° C. (CYP1A2-15 min; CYP2C9-45 min; CYP2C19, 2D6 and 3A4-30 min) and read in a Tecan Safire 2 plate reader (CYP1A2, 2C19 and 3A4 409 ex/460 em; CYP2C9 and 2D6 409 ex/530 em). The signal versus compound concentration is used to determine the IC50. The enzymes and substrates for this assay are obtained from BD Biosciences.

CYP3A4(BFC) = CYP3A4(BFC) (Homo sapiens, UniProt P08684); assay: CYP3A4 inhibition (substrate BFC); format: in vitro ADME; conditions: read-out: Cyp IC50 (μM) 3A4(BFC)
Experimental: as §1

[1] = Relative solubility by turbidity in aqueous buffers (pH 1.5, 4.5, 6.8, 7.4); format: physicochemical; conditions: for turbidity threshold (L, M, H) 1.4: pH 1.5 buffer (SGF); for turbidity threshold (L, M, H) 4.5: pH 4.5 buffer (SIF); for turbidity threshold (L, M, H) 6.8: pH 6.8 buffer (SIF); for turbidity threshold (L, M, H) 7.4: pH 7.4 buffer (HEPES)
Procedure, shortened: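 2-fold DMSO dilution series from 25 mM stocks were added to SGF (0.5M NaCl, pH 1.5), SIF (0.05M NaH2PO4, pH 4.5/6.8) or HEPES (10 mM, 150 mM NaCl, pH 7.4). Absorbance at 490, 535 and 650 nm; value is the concentration crossing OD 0.01, averaged over wavelengths. Low <31.3 μM, moderate 31.3–250 μM, high >250 μM.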

CYP3A4(BQ) = CYP3A4(BQ) (Homo sapiens, UniProt P08684); assay: CYP3A4 inhibition (substrate BQ); format: in vitro ADME; conditions: read-out: Cyp IC50 (μM) 3A4(BQ)
Experimental: as §1

CYP2C19 = CYP2C19 (Homo sapiens, UniProt P33261); assay: CYP2C19 inhibition (fluorescent substrate CEC); format: in vitro ADME; conditions: read-out: Cyp IC50 (μM) 2C19
Experimental: as §1

c-Raf-1 = c-Raf-1 (Homo sapiens, UniProt P04049); assay: c-Raf-1 kinase activity assay (AlphaScreen, biotin-MEK1 substrate); conditions: 100 μM ATP, 100 nM biotin-MEK1, 45 minutes at room temperature; read-out: Biochemical activity (IC50 μM) c-Raf-1
Procedure, shortened: (§2)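 AlphaScreen detection of phospho-MEK1 uses anti-phospho-MEK1/2 antibody and donor/acceptor beads, incubated 3 h. The kinase step runs 45 min at room temperature with 0.1 ng enzyme, 100 nM biotin-MEK1 and 100 μM ATP in 50 mM HEPES pH 7.0. IC50 is derived from eight compound concentrations.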

CYP2D6 = CYP2D6 (Homo sapiens, UniProt P10635); assay: CYP2D6 inhibition (fluorescent substrate AMMC); format: in vitro ADME; conditions: read-out: Cyp IC50 (μM) 2D6
Experimental: as §1

CYP2C9 = CYP2C9 (Homo sapiens, UniProt P11712); assay: CYP2C9 inhibition (fluorescent substrate MFC); format: in vitro ADME; conditions: read-out: Cyp IC50 (μM) 2C9
Experimental: as §1

B-Raf = B-Raf (Homo sapiens, UniProt P15056); assay: B-Raf kinase activity assay (AlphaScreen, biotin-MEK1 substrate); conditions: 100 μM ATP, 100 nM biotin-MEK1, 45 minutes at room temperature; read-out: Biochemical activity (IC50 μM) B-Raf
Procedure, shortened: as §2

B-Raf V600E = B-Raf V600E (Homo sapiens, UniProt P15056, V600E); assay: B-Raf V600E kinase activity assay (AlphaScreen, biotin-MEK1 substrate); conditions: 100 μM ATP, 100 nM biotin-MEK1, 45 minutes at room temperature, read-out: Biochemical activity (IC50 μM) V600E
Procedure, shortened: as §2

[2] = tested on: A375 melanoma (B-Raf V600E mutation); assay: A375 cell growth inhibition (ATPlite luminescence); format: cell-based; conditions: Homo sapiens, A-375, 72 h, A375 cells, incubated 3 days with compound
Experimental: Compounds are assessed in a variety of cell based assays. For example human cell lines with B-Raf V600E mutation (A375 melanoma, SKMEL3 melanoma, and COLO205 colon adenocarcinoma), as well as tumorigenic cell lines with wild-type B-RAF (SW620 colon adenocarcinoma) or with Ras mutations (SKMEL2 melanoma and IPC298 melanoma). Similar assays may be used to assess additional tumorigenic cell lines with Ras mutations, including, but not limited to, M202, M207, M243, M244, M296, S117, HCT116, HCT15, DLD1, MiaPaCa, A549, NCI-H23, NCI-H460, HOP62, MDA-MB231, Hs-578T, HL60, MOLT-4, and CCRF-CEM.
On day 1, cells are counted, then centrifuged in a conical tube for 5 minutes at 1000 rpm. The supernatant is removed and cells are re-suspended as follows: • SW620 (ATCC catalog #CCL-27): resuspend in Leibovitz's L-15 medium, 2 mM L-glutamine, 10% fetal bovine serum to 6×10^4 cells/mL. • A375 (ATCC catalog #CRL-1619): resuspend in Dulbecco's modified Eagle's medium, 4 mM L-glutamine, 4.5 g/L D-glucose, 10% fetal bovine serum to 6×10^4 cells/mL. • COLO205 (ATCC catalog #CCL-222): resuspend in RPMI 1640, 2 mM L-glutamine, 1.5 g/L sodium bicarbonate, 4.5 g/L D-glucose, 10 mM HEPES, 1.0 mM sodium pyruvate, 10% fetal bovine serum to 6×10^4 cells/mL. • SKMEL2 (ATCC catalog #HTB-68): resuspend in Minimum Eagle essential medium, 2 mM L-glutamine, 1.5 g/L sodium bicarbonate, 0.1 mM non-essential amino acids, 1.0 mM sodium pyruvate, 10% fetal bovine serum to 6×10^4 cells/mL. • SKMEL3 (ATCC catalog #HTB-69): resuspend in McCoy's 5A medium, 1.5 mM L-glutamine, 15% fetal bovine serum to 6×10^4 cells/mL. • IPC298 (DSMZ catalog #ACC 251): resuspend in RPMI 1640, 2 mM L-glutamine, 10% fetal bovine serum to 6×10^4 cells/mL.
The cells are plated, 50 μL in each well of a 96-well dish (Corning 3610) and incubated at 37° C. in 5% CO2 overnight, cells plated to a final concentration of cells as follows:
On day 2, compound at a maximum concentration of 5 mM is serially diluted 1:3 (e.g. 10 μL with 30 μL dimethyl sulfoxide) for a total of 8 point titration with DMSO as a control. A 1 μL aliquot of each dilution point and control is added to 249 μL growth media and 50 μL is added to a well containing cells, providing 10 μM compound at the maximum concentration point. The cells are incubated for 3 days at 37° C. in 5% CO2.
On day 5, ATPlite 1 step Luminescence Assay System (Perkin Elmer #6016739) is brought to room temperature along with the cell cultures. ATPlite is added 25 μL to each well, shake for 2 minutes, and the cells are incubated at room temperature for 10 minutes, then luminescence is read on Safire reader. The measured luminescence correlates directly with cell number, such that the reading as a function of compound concentration is used to determine the IC50 value.
It is understood that the results of these assays may vary as assay conditions are varied. Inhibition levels determined under the conditions described herein represent a relative activity for the compounds tested under the specific conditions employed. The cell based assays are likely to show variability due to the complexity of the system and the sensitivity thereof to any changes in the assay conditions. […] Results for compounds that are tested and show substantially no inhibition below the highest tested concentration are represented as “-” in the tables below. In some instances, the compounds were not tested in all of the assays, or assay results were not valid, as indicated by NA in the tables below.

[3] = tested on: COLO205 colon adenocarcinoma (B-Raf V600E mutation); assay: COLO205 cell growth inhibition (ATPlite luminescence); format: cell-based; conditions: Homo sapiens, COLO 205, 72 h, COLO205 cells, incubated 3 days with compound
Procedure, shortened: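 Cells seeded at 6×10^4 cells/mL in line-specific medium with 10% FBS, held overnight at 37°C, then given an 8-point 1:3 compound titration (top 10 μM final) for 3 days at 37°C, 5% CO2. ATP content read by ATPlite luminescence as a cell-number proxy; IC50 fitted from luminescence versus concentration.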

CYP2D6, sequence (P10635 whole entry): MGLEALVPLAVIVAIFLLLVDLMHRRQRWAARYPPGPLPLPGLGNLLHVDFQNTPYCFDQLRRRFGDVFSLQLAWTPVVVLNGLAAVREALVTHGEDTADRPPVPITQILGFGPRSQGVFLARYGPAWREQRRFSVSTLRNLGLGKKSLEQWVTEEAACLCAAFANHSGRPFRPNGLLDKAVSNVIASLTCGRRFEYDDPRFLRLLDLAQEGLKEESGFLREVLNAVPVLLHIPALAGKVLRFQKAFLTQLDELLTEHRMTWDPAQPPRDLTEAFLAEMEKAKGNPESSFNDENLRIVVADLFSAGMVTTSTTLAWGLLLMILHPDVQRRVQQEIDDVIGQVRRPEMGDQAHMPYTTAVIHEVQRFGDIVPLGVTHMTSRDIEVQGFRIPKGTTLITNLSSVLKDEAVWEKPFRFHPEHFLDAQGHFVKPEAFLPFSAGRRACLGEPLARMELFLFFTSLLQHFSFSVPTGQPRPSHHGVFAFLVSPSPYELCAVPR
c-Raf-1, sequence (P04049 whole entry Y340D/Y341D, form open): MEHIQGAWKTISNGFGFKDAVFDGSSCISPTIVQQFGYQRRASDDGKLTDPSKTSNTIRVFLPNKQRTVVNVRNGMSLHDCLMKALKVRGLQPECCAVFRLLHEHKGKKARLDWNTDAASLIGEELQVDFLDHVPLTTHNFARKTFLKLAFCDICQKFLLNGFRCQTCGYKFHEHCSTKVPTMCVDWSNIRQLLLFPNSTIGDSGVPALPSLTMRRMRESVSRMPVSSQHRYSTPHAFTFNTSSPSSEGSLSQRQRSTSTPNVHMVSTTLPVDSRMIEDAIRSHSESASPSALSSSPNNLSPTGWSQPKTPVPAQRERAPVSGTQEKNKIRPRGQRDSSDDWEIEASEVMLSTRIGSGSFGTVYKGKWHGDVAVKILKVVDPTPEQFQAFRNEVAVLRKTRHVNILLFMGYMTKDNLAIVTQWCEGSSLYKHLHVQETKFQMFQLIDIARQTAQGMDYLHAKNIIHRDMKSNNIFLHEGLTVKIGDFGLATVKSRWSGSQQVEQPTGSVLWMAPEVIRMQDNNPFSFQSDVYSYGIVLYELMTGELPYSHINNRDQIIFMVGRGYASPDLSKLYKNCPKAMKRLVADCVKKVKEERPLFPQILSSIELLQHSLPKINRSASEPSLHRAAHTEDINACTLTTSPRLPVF
CYP2C9, sequence (P11712 whole entry): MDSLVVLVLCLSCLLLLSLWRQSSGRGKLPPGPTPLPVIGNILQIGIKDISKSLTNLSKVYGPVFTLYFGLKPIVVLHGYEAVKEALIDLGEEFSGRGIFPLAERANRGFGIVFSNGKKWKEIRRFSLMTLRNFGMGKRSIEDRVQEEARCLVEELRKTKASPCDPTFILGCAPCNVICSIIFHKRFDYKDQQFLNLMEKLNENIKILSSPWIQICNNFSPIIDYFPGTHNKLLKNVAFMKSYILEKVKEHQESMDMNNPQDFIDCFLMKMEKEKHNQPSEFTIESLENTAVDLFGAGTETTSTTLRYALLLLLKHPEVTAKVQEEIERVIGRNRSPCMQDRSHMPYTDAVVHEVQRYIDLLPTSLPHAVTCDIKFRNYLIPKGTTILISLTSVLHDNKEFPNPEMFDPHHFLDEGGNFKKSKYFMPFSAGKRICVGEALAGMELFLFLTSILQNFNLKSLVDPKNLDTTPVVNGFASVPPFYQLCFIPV
CYP2C19, sequence (P33261 whole entry): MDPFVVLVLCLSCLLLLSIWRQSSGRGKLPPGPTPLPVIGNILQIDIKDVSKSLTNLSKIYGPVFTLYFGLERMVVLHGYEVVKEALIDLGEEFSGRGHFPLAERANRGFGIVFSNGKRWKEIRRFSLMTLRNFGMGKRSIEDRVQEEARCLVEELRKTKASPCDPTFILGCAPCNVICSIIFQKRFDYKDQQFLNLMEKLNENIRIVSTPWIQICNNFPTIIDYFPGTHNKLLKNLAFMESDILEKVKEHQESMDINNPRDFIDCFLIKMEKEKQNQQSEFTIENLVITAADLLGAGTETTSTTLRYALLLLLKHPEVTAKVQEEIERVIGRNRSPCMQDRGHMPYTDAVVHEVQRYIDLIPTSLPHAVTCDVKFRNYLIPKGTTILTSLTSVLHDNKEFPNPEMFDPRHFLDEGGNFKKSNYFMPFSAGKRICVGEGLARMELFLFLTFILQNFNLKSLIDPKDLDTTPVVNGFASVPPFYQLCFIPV
CYP3A4(BFC), sequence (P08684 whole entry): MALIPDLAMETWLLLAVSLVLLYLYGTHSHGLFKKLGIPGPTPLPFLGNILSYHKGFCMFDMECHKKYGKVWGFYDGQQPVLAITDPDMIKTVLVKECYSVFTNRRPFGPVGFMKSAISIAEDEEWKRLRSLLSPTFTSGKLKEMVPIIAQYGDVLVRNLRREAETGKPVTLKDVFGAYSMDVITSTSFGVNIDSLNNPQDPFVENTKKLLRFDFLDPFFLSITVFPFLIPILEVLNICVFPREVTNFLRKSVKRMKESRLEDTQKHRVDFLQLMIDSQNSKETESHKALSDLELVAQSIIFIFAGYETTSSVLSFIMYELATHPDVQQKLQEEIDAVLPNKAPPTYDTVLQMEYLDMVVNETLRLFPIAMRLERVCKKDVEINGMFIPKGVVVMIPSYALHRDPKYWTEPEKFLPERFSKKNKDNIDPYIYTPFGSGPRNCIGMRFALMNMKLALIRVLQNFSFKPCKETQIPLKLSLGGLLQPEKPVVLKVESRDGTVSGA
CYP3A4(BQ), sequence (P08684 whole entry): as above
B-Raf, sequence (P15056 whole entry): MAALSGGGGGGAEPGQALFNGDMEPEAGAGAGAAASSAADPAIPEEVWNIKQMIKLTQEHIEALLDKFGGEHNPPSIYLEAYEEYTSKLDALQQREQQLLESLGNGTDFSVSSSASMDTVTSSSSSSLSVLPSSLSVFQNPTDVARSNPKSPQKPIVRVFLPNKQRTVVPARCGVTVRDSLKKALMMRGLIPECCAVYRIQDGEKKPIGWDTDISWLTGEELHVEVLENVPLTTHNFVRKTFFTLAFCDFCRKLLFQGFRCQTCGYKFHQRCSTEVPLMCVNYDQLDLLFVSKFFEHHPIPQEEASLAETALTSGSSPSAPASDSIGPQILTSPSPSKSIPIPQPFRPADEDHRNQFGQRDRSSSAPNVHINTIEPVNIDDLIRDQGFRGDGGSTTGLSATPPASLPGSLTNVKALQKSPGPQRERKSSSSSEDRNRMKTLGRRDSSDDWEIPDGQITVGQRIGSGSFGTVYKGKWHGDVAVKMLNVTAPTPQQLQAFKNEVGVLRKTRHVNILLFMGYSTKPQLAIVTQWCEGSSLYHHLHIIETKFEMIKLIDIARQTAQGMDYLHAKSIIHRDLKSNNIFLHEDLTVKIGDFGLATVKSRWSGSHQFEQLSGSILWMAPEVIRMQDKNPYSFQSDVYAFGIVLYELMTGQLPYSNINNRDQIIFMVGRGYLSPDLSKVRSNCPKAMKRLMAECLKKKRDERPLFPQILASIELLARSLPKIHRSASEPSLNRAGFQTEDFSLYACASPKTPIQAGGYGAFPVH
B-Raf V600E, sequence (P15056 whole entry V600E): as the sequence (P15056 whole entry) above, with V600E counted along it

Row | SMILES | IC50 (CYP1A2) | IC50 (CYP3A4(BFC)) | turbidity threshold (L, M, H) 1.4 [1] | turbidity threshold (L, M, H) 4.5 [1] | turbidity threshold (L, M, H) 6.8 [1] | turbidity threshold (L, M, H) 7.4 [1] | IC50 (CYP3A4(BQ)) | IC50 (CYP2C19) | IC50 (c-Raf-1) | IC50 (CYP2D6) | IC50 (CYP2C9) | IC50 (B-Raf) | IC50 (B-Raf V600E) | IC50 [2] | IC50 [3]
1 | CCCS(=O)(=O)Nc1ccc(F)c(C(=O)c2c[nH]c3ncc(-c4cnn(C5CCN(C(=O)OC(C)(C)C)CC5)c4)cc23)c1F [P-1001, 4-(4-{3-[2,6-Difluoro-3-(propane-1-sulfonylamino)-benzoyl]-1H-pyrrolo[2,3-b]pyridin-5-yl}-pyrazol-1-yl)-piperidine-1-carboxylic acid tert-butyl ester] | > 10 µM | 5 to 10 µM | M (moderate solubility if the threshold concentration is 31.3 μM to 250 μM) | L (low solubility if the threshold concentration is <31.3 μM) | M (moderate solubility if the threshold concentration is 31.3 μM to 250 μM) | L (low solubility if the threshold concentration is <31.3 μM) | > 10 µM | 5 to 10 µM | < 0.1 µM | > 10 µM | > 10 µM |  |  |  | 
2 | COc1ccc(-c2cnc3[nH]cc(C(=O)c4c(F)ccc(NS(=O)(=O)c5cc(F)ccc5F)c4F)c3c2)cn1 [P-1404, N-{2,4-Difluoro-3-[5-(6-methoxy-pyridin-3-yl)-1H-pyrrolo[2,3-b]pyridine-3-carbonyl]-phenyl}-2,5-difluoro-benzenesulfonamide] | > 10 µM | > 10 µM |  |  |  |  | > 10 µM | > 10 µM | < 0.1 µM | > 10 µM | > 10 µM | < 0.1 µM | < 0.1 µM |  | 
3 | COc1ncc(-c2cnc3[nH]cc(C(=O)c4cccc(NS(=O)(=O)c5ccccc5F)c4F)c3c2)cn1 [P-1518, 2-Fluoro-N-{2-fluoro-3-[5-(2-methoxy-pyrimidin-5-yl)-1H-pyrrolo[2,3-b]pyridine-3-carbonyl]-phenyl}-benzenesulfonamide] | > 10 µM | > 10 µM | L (low solubility if the threshold concentration is <31.3 μM) | L (low solubility if the threshold concentration is <31.3 μM) | L (low solubility if the threshold concentration is <31.3 μM) | L (low solubility if the threshold concentration is <31.3 μM) | > 10 µM | > 10 µM |  | > 10 µM | > 10 µM |  |  |  | 
4 | CCCS(=O)(=O)Nc1ccc(F)c(C(=O)c2c[nH]c3ncc(-c4cnc(-n5ccccc5=O)cn4)cc23)c1F [P-1600, Propane-1-sulfonic acid (2,4-difluoro-3-{5-[5-(2-oxo-2H-pyridin-1-yl)-pyrazin-2-yl]-1H-pyrrolo[2,3-b]pyridine-3-carbonyl}-phenyl)-amide] |  |  |  |  |  |  |  |  | < 0.1 µM |  |  | < 0.1 µM | < 0.1 µM | > 1 µM | < 1 µM
